PubChem BioAssay (NCI)
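Growth conditions: 96-well plates. Treatment: test compound, 48 hours, 5 concentrations. Analysis: linear interpolation between bracketing concentrations; unreached endpoints set to highest concentration. TGI denotes the concentration required for complete inhibition of growth.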

Key:
Assay in all cases: NCI tumour cell line growth inhibition, 48 h
786-0 renal = test system: 786-0 renal
CAKI-1 renal = test system: CAKI-1 renal
CCRF-CEM leukemia = test system: CCRF-CEM leukemia
HOP-92 NSCLC = test system: HOP-92 NSCLC
MDA-MB-435 = test system: MDA-MB-435
MOLT-4 leukemia = test system: MOLT-4 leukemia
NCI-H23 lung = test system: NCI-H23 lung
SF-268 CNS = test system: SF-268 CNS
SW-620 colon = test system: SW-620 colon
TK-10 renal = test system: TK-10 renal
U251 CNS = test system: U251 CNS

With `O=C(CN1CCCC1)Nc1ccc2c(c1)C1Oc3ccccc3CC1CO2` (stereo not given) the TGI (786-0 renal) was 57.1 µM, the TGI (CAKI-1 renal) was > 100 µM and the TGI (CCRF-CEM leukemia) was > 100 µM. The TGI (HOP-92 NSCLC) was > 100 µM, the TGI (MDA-MB-435) was 55.4 µM and the TGI (MOLT-4 leukemia) was > 100 µM. The TGI (NCI-H23 lung) was > 100 µM, the TGI (SF-268 CNS) was > 100 µM and the TGI (SW-620 colon) was 35.6 µM. For the same molecule, the TGI (TK-10 renal) was > 100 µM and the TGI (U251 CNS) was 56.5 µM.
With `O=c1[nH]c2ccccc2c(=O)n1/N=C\c1ccccc1O` the TGI (786-0 renal) was > 100 µM, the TGI (CAKI-1 renal) was > 100 µM and the TGI (CCRF-CEM leukemia) was > 100 µM. The TGI (HOP-92 NSCLC) was > 100 µM, the TGI (MDA-MB-435) was > 100 µM and the TGI (MOLT-4 leukemia) was > 100 µM. For the same molecule, the TGI (NCI-H23 lung) was > 100 µM, the TGI (SF-268 CNS) was > 100 µM and the TGI (SW-620 colon) was > 100 µM. For the same molecule, the TGI (TK-10 renal) was > 100 µM and the TGI (U251 CNS) was > 100 µM.
For `Nc1ncnc2c1ncn2CCCNO`, the TGI (786-0 renal) was > 100 µM, the TGI (CAKI-1 renal) was > 100 µM and the TGI (CCRF-CEM leukemia) was > 100 µM. For the same molecule, the TGI (HOP-92 NSCLC) was > 100 µM, the TGI (MDA-MB-435) was > 100 µM and the TGI (MOLT-4 leukemia) was > 100 µM. The TGI (NCI-H23 lung) was > 100 µM, the TGI (SF-268 CNS) was > 100 µM and the TGI (SW-620 colon) was > 100 µM. For the same molecule, the TGI (TK-10 renal) was > 100 µM and the TGI (U251 CNS) was > 100 µM.
For `O=c1ccc(=O)c2c1c1[nH]c3ccccc3c1c1c(=O)c3ccccc3c(=O)c21`, the TGI (786-0 renal) was > 10 µM, the TGI (CAKI-1 renal) was > 10 µM and the TGI (CCRF-CEM leukemia) was > 10 µM. For the same molecule, the TGI (HOP-92 NSCLC) was > 10 µM, the TGI (MDA-MB-435) was > 10 µM and the TGI (MOLT-4 leukemia) was 7.55 µM. The TGI (NCI-H23 lung) was > 10 µM, the TGI (SF-268 CNS) was > 10 µM and the TGI (SW-620 colon) was > 10 µM. For the same molecule, the TGI (TK-10 renal) was > 10 µM and the TGI (U251 CNS) was > 10 µM.
With `CCOC(=O)CCC(C(=O)OCC)n1nnc2cc(Nc3c(C)[n+]([O-])c4cc(Cl)ccc4[n+]3[O-])ccc21` (stereo not given) the TGI (786-0 renal) was > 100 µM, the TGI (CAKI-1 renal) was > 100 µM and the TGI (CCRF-CEM leukemia) was > 100 µM. The TGI (HOP-92 NSCLC) was > 100 µM, the TGI (MDA-MB-435) was > 100 µM and the TGI (MOLT-4 leukemia) was > 100 µM. For the same molecule, the TGI (NCI-H23 lung) was > 100 µM, the TGI (SF-268 CNS) was > 100 µM and the TGI (SW-620 colon) was > 100 µM. The TGI (TK-10 renal) was > 100 µM and the TGI (U251 CNS) was > 100 µM.
`CC1OC23CCCCC2C(C#N)(C#N)C1(C#N)C(=N)O3` (stereo not given) was tested, and the TGI (786-0 renal) was 28.6 µM, the TGI (CAKI-1 renal) was 19.8 µM and the TGI (CCRF-CEM leukemia) was 46.8 µM. It also gave a TGI (HOP-92 NSCLC) of 29.3 µM, a TGI (MDA-MB-435) of 50.9 µM and a TGI (MOLT-4 leukemia) of 90.1 µM. It also gave a TGI (NCI-H23 lung) of 52.7 µM, a TGI (SF-268 CNS) of 60.3 µM and a TGI (SW-620 colon) of 98.3 µM. It also gave a TGI (TK-10 renal) of 46.8 µM and a TGI (U251 CNS) of 71.5 µM.
For `O=C(CCCCCCCCC(=O)N1C(=O)CC(=O)N(c2ccc(Cl)cc2)C1=S)N1C(=O)CC(=O)N(c2ccc(Cl)cc2)C1=S`, the TGI (786-0 renal) was > 100 µM, the TGI (CAKI-1 renal) was > 100 µM and the TGI (CCRF-CEM leukemia) was 87.1 µM. For the same molecule, the TGI (HOP-92 NSCLC) was > 100 µM, the TGI (MDA-MB-435) was > 100 µM and the TGI (MOLT-4 leukemia) was 75.6 µM. For the same molecule, the TGI (NCI-H23 lung) was > 100 µM, the TGI (SF-268 CNS) was > 100 µM and the TGI (SW-620 colon) was > 100 µM. For the same molecule, the TGI (TK-10 renal) was > 100 µM and the TGI (U251 CNS) was > 100 µM.
In the case of `NCC1OC(OC2C(N)CC(N)C(O)C2OC2OC(CO)C(O)C2O)C(N)C(O)C1O` (stereo not given), the TGI (786-0 renal) is reported as > 100 µM, the TGI (CAKI-1 renal) is reported as > 100 µM and the TGI (CCRF-CEM leukemia) is reported as > 100 µM. For the same molecule, the TGI (HOP-92 NSCLC) was > 100 µM, the TGI (MDA-MB-435) was > 100 µM and the TGI (MOLT-4 leukemia) was > 100 µM. For the same molecule, the TGI (NCI-H23 lung) was > 100 µM, the TGI (SF-268 CNS) was > 100 µM and the TGI (SW-620 colon) was > 100 µM. The TGI (TK-10 renal) was > 100 µM and the TGI (U251 CNS) was > 100 µM.
`CCOC(=O)/C=C(/OCC)[C@@H]1C(C(=O)c2ccc(Cl)cc2)[C@@H]1/C(=C\C(=O)OCC)OCC` (stereo not given in full) was tested, and the TGI (786-0 renal) was > 100 µM, the TGI (CAKI-1 renal) was > 100 µM and the TGI (CCRF-CEM leukemia) was > 100 µM. The TGI (HOP-92 NSCLC) was 17.9 µM, the TGI (MDA-MB-435) was > 83.8 µM and the TGI (MOLT-4 leukemia) was > 24.4 µM. The TGI (NCI-H23 lung) was 81.8 µM, the TGI (SF-268 CNS) was > 100 µM and the TGI (SW-620 colon) was > 100 µM. The TGI (TK-10 renal) was 43.6 µM and the TGI (U251 CNS) was > 100 µM.
`CC(C)NC(=O)OCCN=C1c2ccccc2C(Br)C(Br)c2ccccc21` (stereo not given) gave a TGI (786-0 renal) of 8.34 µM, a TGI (CAKI-1 renal) of 19.7 µM and a TGI (CCRF-CEM leukemia) of 1.69 µM. It also gave a TGI (HOP-92 NSCLC) of 17 µM, a TGI (MDA-MB-435) of 27.2 µM and a TGI (MOLT-4 leukemia) of 14.9 µM. The TGI (NCI-H23 lung) was 53.8 µM, the TGI (SF-268 CNS) was 38.7 µM and the TGI (SW-620 colon) was > 27.3 µM. The TGI (TK-10 renal) was 21.6 µM and the TGI (U251 CNS) was 25.5 µM.
